According to patent US10543286B2, “Methods for increasing platelet count by inhibiting biliverdin IXβ reductase” (The Research Foundation for The State University of New York, priority 2015, dated 2020):

Assays:
[1] = tested on: control or iPSC/BLVRB^S111L cells (NCRM1 iPSCs); assay: TBHP-induced ROS accumulation in genetically-modified iPSCs (CellROX Green, flow cytometry); type: cell-based; conditions: Homo sapiens, 1 hour at 37° C., read-out: concentration causing ROS accumulation in 50% of cells (EC50)
Description: FIG. 3i is a bar graph showing ROS expression by genetically-modified NCRM1 iPSCs. About 1×10^5, cells were labeled as in FIG. 2h, and treated (or not) with 200 μM tert-butyl hydroperoxide (TBHP) for 1 hour at 37° C., and ROS-expressing cells were quantitated by flow cytometry after a 60 minute period loading with cell-permeable CellROX Green (500 nM) as indicator (N=6); p-values *<0.05; **<0.01; ***<0.001; ****<0.0001. From left to right, the bars correspond to activity in control cells, activity in cells having BLVRB^WT, and activity in cells having BLVRB^S111L.
Hematopoietic-derived (CD34^+) induced pluripotent stein cells (iPSC) expressing endogenous BLVRB were initially developed as heterozygous models designed to phenocopy zygosity state in subject cohorts. […]
Human CD34^+-derived NCRM1 induced pluripotent stem cells (iPSC) were genetically modified using lentivirus infection (MOI 9) for generation of stable cell lines after puromycin selection (iPSC/BLVRB^S111L, iPSC/BLVRB^WT, iPSC/Control). Oxidation/reduction activity was quantified in vitro using the NADPH-dependent redox coupler resazurin; cells (4×10^4/well) were plated and propagated in mTeSR1 medium and at 24 hours were incubated with resazurin (0.1 v/v) followed by serial spectrofluorimetric detection (530 nm excitation, 590 nm emission) for the reduced resorufin byproduct. […]

[2] = target: T1, biliverdin IX beta reductase (BLVRB) (Homo sapiens, UniProt P30043); assay: BLVRB flavin reductase inhibition assay (FMN/NADPH, absorbance at 340 nm); type: biochemical; conditions: 300 nM recombinant BLVRB, 200 μM FMN, 100 μM NADPH, 100 mM potassium phosphate pH 7.6, 37° C.; read-out: IC50, concentration of inhibitor needed to inhibit the target enzyme by 50% (flavin reductase activity of BLVRB)
T1 construct: BLVRBWT and BLVRBS111L open reading frames were PCR-amplified and directionally-cloned into pGEX-KG expression vector; GST (N, cleaved yes); made in house; LB medium, IPTG induction
T1 sequence (P30043 1-206): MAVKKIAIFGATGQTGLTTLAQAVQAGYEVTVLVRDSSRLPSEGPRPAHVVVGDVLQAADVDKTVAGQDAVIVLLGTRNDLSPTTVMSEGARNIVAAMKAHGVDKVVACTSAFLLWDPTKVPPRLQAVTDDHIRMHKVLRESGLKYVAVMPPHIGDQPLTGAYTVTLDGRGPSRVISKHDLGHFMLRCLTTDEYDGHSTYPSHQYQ
Description: In one embodiment, the agent is a. chemical compound. An example of such a compound is described in Example 7. Inhibition of enzyme activity by the compound was tested in a reaction containing 100 mM potassium phosphate, pH 7.6, 200 μM FMN (flavin mononucleotide), 100 μM NADPH.
Reactions were initiated by the addition of 300 nM recombinant BLVRB. Enzymatic activity was monitored by following the decrease in absorbance at 340 nm which corresponds to the oxidation of NADPH to NADP^+. […] (FIG. 9)

Structure (SMILES) | EC50 [1] [µM] | IC50 [2] [µM]
CC(C)(C)OO [TBHP, tert-butyl hydroperoxide] | 200 | 
COc1ccc2nc3cc(Cl)ccc3c(Nc3ccc(O)c(CN4CCN(C)CC4)c3)c2c1 [compound 1301] |  | 30.7
